Laboratory results: ChEMBL document CHEMBL1149262, “Monoamine transporter binding, locomotor activity, and drug discrimination properties of 3-(4-substituted-phenyl)tropane-2-carboxylic acid methyl ester isomers” (J Med Chem, 2004)
Activity calls are given as the source filed them. The calls are words filed in the database; no cut-off is given here.

Assays:
Rattus norvegicus [1] = assay: Cocaine discrimination in ip dosed CD Albino rat; type: functional
Rattus norvegicus [2] = assay: Drug discrimination effect in CD Albino rat assessed as percent of rat choosing cocaine lever at 1 mg/kg, ip; type: functional; details: route intraperitoneal
Rattus norvegicus [3] = assay: Drug discrimination effect in CD Albino rat assessed as percent of rat choosing cocaine lever at 1.7 mg/kg, ip; type: functional; details: route intraperitoneal
Rattus norvegicus [4] = assay: Drug discrimination effect in CD Albino rat assessed as percent of rat choosing cocaine lever at 3 mg/kg, ip; type: functional; details: route intraperitoneal
Rattus norvegicus [5] = assay: Drug discrimination effect in CD Albino rat assessed as percent of rat choosing cocaine lever at 5.6 mg/kg, ip; type: functional; details: route intraperitoneal
Rattus norvegicus [6] = assay: Drug discrimination effect in CD Albino rat assessed as percent of rat choosing cocaine lever at 10 mg/kg, ip; type: functional; details: route intraperitoneal
Mus musculus [7] = assay: Activity in CD1 mouse assessed as hyperactivity at 10 mg/kg, ip after 4 hrs; type: functional, organism-based; set-up: dose 10 mg/kg
Mus musculus [8] = assay: Activity in CD1 mouse assessed as stereotypy at 100 mg/kg, ip after 4 hrs; type: functional, organism-based; set-up: dose 100 mg/kg
Mus musculus [9] = assay: Activity in CD1 mouse assessed as circling at 100 mg/kg, ip after 4 hrs; type: functional, organism-based; set-up: dose 100 mg/kg
Mus musculus [10] = assay: Activity in CD1 mouse assessed as stimulation at 100 mg/kg, ip after 4 hrs; type: functional, organism-based; set-up: dose 100 mg/kg
[11] = molecular target: Sodium-dependent dopamine transporter (Homo sapiens, UniProt Q01959); assay: Displacement of [3H]WIN-35428 from DAT
Mus musculus [12] = assay: Locomotor activity in ip dosed CD1 mouse in peak hour; type: functional
Mus musculus [13] = assay: Locomotor activity in CD1 mouse assessed as stimulation at 3 mg/kg, ip after 1 hr relative to control; type: functional; details: route intraperitoneal
Mus musculus [14] = assay: Locomotor activity in CD1 mouse assessed as stimulation at 3 mg/kg, ip after 2 hrs relative to control; type: functional; details: route intraperitoneal
Mus musculus [15] = assay: Locomotor activity in CD1 mouse assessed as stimulation at 3 mg/kg, ip after 3 hrs relative to control; type: functional; details: route intraperitoneal
Mus musculus [16] = assay: Locomotor activity in CD1 mouse assessed as stimulation at 3 mg/kg, ip after 4 hrs relative to control; type: functional; details: route intraperitoneal
Mus musculus [17] = assay: Locomotor activity in CD1 mouse assessed as stimulation at 10 mg/kg, ip after 1 hr relative to control; type: functional; details: route intraperitoneal
Mus musculus [18] = assay: Locomotor activity in CD1 mouse assessed as stimulation at 10 mg/kg, ip after 2 hrs relative to control; type: functional; details: route intraperitoneal
Mus musculus [19] = assay: Locomotor activity in CD1 mouse assessed as stimulation at 10 mg/kg, ip after 3 hrs relative to control; type: functional; details: route intraperitoneal
Mus musculus [20] = assay: Locomotor activity in CD1 mouse assessed as stimulation at 10 mg/kg, ip after 4 hrs relative to control; type: functional; details: route intraperitoneal
Mus musculus [21] = assay: Locomotor activity in CD1 mouse assessed as stimulation at 30 mg/kg, ip after 1 hr relative to control; type: functional; details: route intraperitoneal
Mus musculus [22] = assay: Locomotor activity in CD1 mouse assessed as stimulation at 30 mg/kg, ip after 2 hrs relative to control; type: functional; details: route intraperitoneal
Mus musculus [23] = assay: Locomotor activity in CD1 mouse assessed as stimulation at 30 mg/kg, ip after 3 hrs relative to control; type: functional; details: route intraperitoneal
Mus musculus [24] = assay: Locomotor activity in CD1 mouse assessed as stimulation at 30 mg/kg, ip after 4 hrs relative to control; type: functional; details: route intraperitoneal
Mus musculus [25] = assay: Locomotor activity in CD1 mouse assessed as stimulation at 100 mg/kg, ip after 1 hr relative to control; type: functional; details: route intraperitoneal
Mus musculus [26] = assay: Locomotor activity in CD1 mouse assessed as stimulation at 100 mg/kg, ip after 2 hrs relative to control; type: functional; details: route intraperitoneal
Mus musculus [27] = assay: Locomotor activity in CD1 mouse assessed as stimulation at 100 mg/kg, ip after 3 hrs relative to control; type: functional; details: route intraperitoneal
Mus musculus [28] = assay: Locomotor activity in CD1 mouse assessed as stimulation at 100 mg/kg, ip after 4 hrs relative to control; type: functional; details: route intraperitoneal
Mus musculus [29] = assay: Locomotor activity in CD1 mouse assessed as stimulation at 1 mg/kg, ip after 1 hr relative to control; type: functional; details: route intraperitoneal
Mus musculus [30] = assay: Locomotor activity in CD1 mouse assessed as stimulation at 1 mg/kg, ip after 2 hrs relative to control; type: functional; details: route intraperitoneal
Mus musculus [31] = assay: Locomotor activity in CD1 mouse assessed as stimulation at 1 mg/kg, ip after 3 hrs relative to control; type: functional; details: route intraperitoneal
Mus musculus [32] = assay: Locomotor activity in CD1 mouse assessed as stimulation at 1 mg/kg, ip after 4 hrs relative to control; type: functional; details: route intraperitoneal
Mus musculus [33] = assay: Activity in CD1 mouse assessed as death at 100 mg/kg, ip after 4 hrs; type: functional, organism-based; set-up: dose 100 mg/kg
Mus musculus [34] = assay: Activity in CD1 mouse assessed as convulsions at 100 mg/kg, ip after 4 hrs; type: functional, organism-based; set-up: dose 100 mg/kg
Mus musculus [35] = assay: Activity in CD1 mouse assessed as hypoactivity at 100 mg/kg, ip after 4 hrs; type: functional, organism-based; set-up: dose 100 mg/kg
Mus musculus [36] = assay: Activity in CD1 mouse assessed as flattened body posture at 100 mg/kg, ip after 4 hrs; type: functional, organism-based; set-up: dose 100 mg/kg

Sequence of Sodium-dependent dopamine transporter (Q01959 whole entry): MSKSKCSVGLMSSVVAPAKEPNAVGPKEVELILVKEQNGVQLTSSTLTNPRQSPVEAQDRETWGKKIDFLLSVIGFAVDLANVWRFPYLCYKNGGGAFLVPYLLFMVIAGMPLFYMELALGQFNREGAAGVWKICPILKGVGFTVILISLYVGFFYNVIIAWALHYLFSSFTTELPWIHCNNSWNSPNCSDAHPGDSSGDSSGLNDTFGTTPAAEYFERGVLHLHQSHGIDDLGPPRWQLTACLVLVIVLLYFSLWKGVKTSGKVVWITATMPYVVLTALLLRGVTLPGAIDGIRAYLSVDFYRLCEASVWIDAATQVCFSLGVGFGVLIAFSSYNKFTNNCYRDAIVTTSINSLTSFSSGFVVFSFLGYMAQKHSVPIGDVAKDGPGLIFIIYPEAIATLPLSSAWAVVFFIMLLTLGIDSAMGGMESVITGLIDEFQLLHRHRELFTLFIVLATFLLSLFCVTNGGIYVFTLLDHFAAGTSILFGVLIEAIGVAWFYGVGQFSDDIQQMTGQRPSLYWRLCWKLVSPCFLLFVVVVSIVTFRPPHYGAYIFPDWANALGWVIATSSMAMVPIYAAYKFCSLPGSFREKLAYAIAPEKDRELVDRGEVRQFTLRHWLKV

SMILES | Activity (Rattus norvegicus [2]) [%] | Activity (Rattus norvegicus [4]) [%] | Activity (Rattus norvegicus [5]) [%] | Activity (Rattus norvegicus [6]) [%] | Activity (Mus musculus [13]) [%] | Activity (Mus musculus [14]) [%] | Activity (Mus musculus [15]) [%] | Activity (Mus musculus [16]) [%] | Activity (Mus musculus [17]) [%] | Activity (Mus musculus [18]) [%] | Activity (Mus musculus [19]) [%] | Activity (Mus musculus [20]) [%] | Activity (Mus musculus [21]) [%] | Activity (Mus musculus [22]) [%] | Activity (Mus musculus [23]) [%] | Activity (Mus musculus [24]) [%] | other results
COC(=O)[C@@H]1C2CCC(C[C@H]1c1ccc(Cl)cc1)N2C (some centres not stated) | 25 | 67 | 67 | 100 | 49 | 64 | 135 | 38 | 340 | 322 | 373 | 11 | 868 | 1127 | 1002 | 158 | ED50 (Rattus norvegicus [1]): 2.55 mg/kg; Activity (Rattus norvegicus [3]): 25%; Activity (Mus musculus [7]): Active; Activity (Mus musculus [8]): Active; Activity (Mus musculus [9]): Active; Activity (Mus musculus [10]): Active; IC50 [11]: 3.1 nM; ED50 (Mus musculus [12]): 9.1 mg/kg; Activity (Mus musculus [25]): 487%; Activity (Mus musculus [26]): 217%; Activity (Mus musculus [27]): 1065%; Activity (Mus musculus [28]): 598%
COC(=O)[C@H]1[C@H]2CCC(C[C@H]1c1ccc(Cl)cc1)N2C | 13 | 0 | 13 | 13 | 16 | 128 | 107 | 69 | 51 | 169 | 114 | 41 | -46 | -27 | 125 | -27 | Activity (Mus musculus [29]): 6%; Activity (Mus musculus [30]): 182%; Activity (Mus musculus [31]): 154%; Activity (Mus musculus [32]): 45%; Activity (Mus musculus [33]): Active; Activity (Mus musculus [34]): Active; Activity (Mus musculus [35]): Active; Activity (Mus musculus [36]): Active
